Measurements taken from patent US8987332B2, “Methods of treating inflammatory conditions” (The Regents of the University of California, priority 2009, dated 2015).

Columns and labels:
RAW 264.7 cells [1] = test: LPS-induced inflammatory signaling and cytokine secretion in RAW 264.7 cells; format: cell-based, mouse; settings: for LPS-induced phosphorylation of JNK and IKKβ, IκB degradation, cytokine secretion and inflammatory gene expression level: pretreated 1 hr
Text: FIG. 1. Expression level of GPR120 and GPR120-mediated anti-inflammatory response in RAW 264.7 cells. (A) The mRNA expression pattern of various lipid sensing GPCRs is shown in adipose tissue, (B) CD11c+ bone marrow-derived dendritic cells (BMDCs), bone marrow-derived macrophages (BMDMs), IPMacs, 3T3-L1 preadipocytes, differentiated 3T3-L1 adipocytes, RAW 264.7 cells and L6 myocytes. Ribosomal protein S3 (RPS3) was used as internal control. (C) Expression of GPR120 in SVF, adipocytes and hepatic Kupffer cells from chow (NC)- or HFD-fed mice was examined by q-PCR. Data are expressed as the mean±SEM of at least three independent experiments in triplicate. *, p<0.05 versus NC. (D) RAW 264.7 cells, transfected with scrambled (Scr) or GPR120 #2 siRNA (GPR120 KD), were treated with 100 μM of GW9508 for 1 hr prior to LPS (100 ng/ml) treatment for 10 min and then subjected to western blotting. […] (E) Cytokine secretion level was measured in RAW 264.7 cells by ELISA. Data are expressed as the mean±SEM of three independent experiments. *, p<0.05 versus LPS treatment in scrambled siRNA transfected cells. See also FIGS. 8 and 9.
Proteins from tissues or cell lysates were extracted with radioimmune precipitation buffer in the presence of phosphatase inhibitors and protease inhibitors (Roche Applied Science). […] of proteins/lane were separated on a 10% polyacrylamide, precast SDS gel (Bio-Rad) followed by transfer on polyvinylidene difluoride membrane (Immobilon, Millipore), and western blotting was performed as described (Nguyen et al., 2005) with indicated antibodies. For immunoprecipitations, lysates were incubated with 1 μg of anti-β-arrestin2, TAK1 antibody (Cell signaling), or GFP antibody (Santa Cruz Biotechnology) overnight at 4° C. and immune complexes precipitated with Protein A/G-conjugated beads (Invitrogen). Beads were washed with PBS and resuspended in sample buffer. Lysates and immune complexes were separated by SDS-PAGE, subjected to western blotting.
TNF-α and IL-6 were directly quantified from RAW 264.7 cells with or without GPR120 knockdown, or IPMacs culture medium. Cells were treated with 100 μM GW9508 or DHA for 1 hr prior to treat 100 ng/ml LPS for 6 hr and then collect medium from the cells and subjected to ELISA according to the manufacturer's instructions (BIOSOURCE). For GLP-1 measurement, mouse blood was collected 1 hr after indicated diet feeding. Adequate inhibitors (protease inhibitors and Diprotin A as DPP IV inhibitor) were used while blood was collecting and then subjected to ELISA to the manufacturer's instructions (ALPCO, Salem, N.H.).

3T3-L1 adipocytes [2] = test: GLUT4 translocation and 2-deoxyglucose uptake in 3T3-L1 adipocytes; format: cell-based; settings: for glucose transport: pretreated 30 min
Method: FIG. 4. GPR120 activation enhances GLUT4 translocation and glucose uptake. (A) 3T3-L1 adipocytes were transfected with a dually tagged HA-GLUT4-GFP construct. Total GLUT4 expression was determined by GFP fluorescence, and GLUT4 translocation to the cell surface after 100 ng/ml insulin or 100 μM DHA stimulation for 30 min was determined by indirect immunofluorescence of the HA-conjugated with Alexa 594 in fixed cells. Translocation following insulin stimulation was expressed as a percentage of the maximum response. Bar graph represents the mean±SEM data from four independent experiments. *, p<0.05 vs. vehicle treatment. (B) Glucose uptake was measured in WT and GPR120 KO mouse primary adipose tissue and in (C-F) 3T3-L1 adipocytes±siRNA with the indicated treatment. […] Data are expressed as mean±SEM of three independent experiments in triplicate. *, p<0.05 vs. basal activity. The indicated siRNA knockdown efficiency was validated by western blotting. See also FIG. 10.
HA-GLUT4-eGFP expression vector were electroporated into day 8 post differentiated 3T3-L1 adipocytes for monitoring of GLUT4 translocation as previously described (Yoshizaki et al., 2007). For 2-DOG assay, 3T3-L1 adipocytes were pretreated for 30 min with the indicated drug; and stimulated with 3 ng/ml of insulin for 30 min at 37° C. L6 myocytes were pretreated for 30 min with 100 μM DHA and then stimulated with 100 ng/ml of insulin for 30 min. Glucose uptake was measured as previously described (Imamura et al., 1999).

WT mice on 60% HFD = test: Hyperinsulinemic/euglycemic clamp in HFD-fed WT mice; format: in vivo, mouse; settings: gavage 300 μl EPAX 1050TG, clamp 4 hr after gavage, vs saline
[3] = test system: IPMacs from GPR120 KO mice; test: In vitro transwell chemotaxis assay, GPR120 KO IPMacs; format: cell-based, mouse; settings: pretreatment before exposure to conditioned media
Method: (§1) It seemed possible that the reduction in ATM content in WT animals on the ω-3 FA diet reflected decreased chemotaxis of macrophages. To test this hypothesis, we measured the migratory capacity of IPMacs from WT and GPR120 KO mice using an in vitro transwell chemotaxis assay. […] Similar experiments were performed using the specific chemokine, monocyte chemotactic protein-1 (MCP-1) as a chemoattractant, rather than CM, and these experiments yielded identical results (FIG. 6D).
(§2) In vitro chemotaxis assay was performed as previously described (Patsouris et al., 2009). Briefly, mature 3T3-L1 adipocytes, more than 99% of cells showing large lipids droplets (12 days after differentiation protocol initiation), were used for preparation of conditioned media. Treatment with the 100 μM DHA for 6 hr was performed in serum-free DMEM cultured IPMacs. For the migration per se, 100,000 IPMacs from WT or GPR120 KO mice were used per condition. The IPMacs were placed in the upper chamber of an 8 μm polycarbonate filter (24-transwell format; Corning, Lowell, Mass.), whereas adipocyte conditioned medium or MCP-1 treatment was placed in the lower chamber. After 3 hr of migration, cells were fixed in formalin and stained with 4′,6-diamidino-2-phenylindole and observed.

IPMacs from WT mice = test: In vitro transwell chemotaxis assay, WT IPMacs; format: cell-based, mouse; settings: pretreatment 3 hr before exposure to 3T3-L1 adipocyte conditioned media
Method: as §1
as §2, with “Treatment with the 100 μM DHA for 6 hr was performed in serum-free DMEM cultured IPMacs.” left out

3T3-L1 adipocytes [4] = test: Akt and IRS-1 phosphorylation in 3T3-L1 adipocytes (western blotting); format: cell-based
Method: FIG. 10, related to FIG. 4. DHA activates Akt phosphorylation in a GPR120-dependent manner. (A) Differentiated 3T3-L1 adipocytes were transfected with scrambled or GPR120 siRNA and then 48 hr after siRNA transfection, cells were treated with 100 μM of DHA 30 min prior to insulin (3 ng/ml) treatment for 7 min followed by western blotting with phosphorylated Akt (S473) antibody. […] Data are expressed as the mean±SEM of three independent experiments. *, p<0.05 versus basal. (B) Cells were treated with the PI3K inhibitor LY294002 (50 μM) for 30 min before DHA (100 μM) or insulin (3 ng/ml) treatment. (C) Phosphorylation of IRS-1 was detected after DHA or insulin treatment of 3T3-L1 adipocytes. (D) Schematic diagram of GPR120-mediated Akt activation in 3T3-L1 adipocytes.
(§3) Proteins from tissues or cell lysates were extracted with radioimmune precipitation buffer in the presence of phosphatase inhibitors and protease inhibitors (Roche Applied Science). […] of proteins/lane were separated on a 10% polyacrylamide, precast SDS gel (Bio-Rad) followed by transfer on polyvinylidene difluoride membrane (Immobilon, Millipore), and western blotting was performed as described (Nguyen et al., 2005) with indicated antibodies. […]

L6 myocytes = test: 2-deoxyglucose uptake in L6 myocytes; format: cell-based; settings: 100 μM, compared to vehicle treated cells
Method: FIG. 11, related to FIG. 5. Hyperinsulinemic/euglycemic clamp studies in bone marrow transplanted animals and muscle expression of GPR120. For bone marrow transplantation studies, WT or GPR120 KO mouse bone marrow (BM) was injected into irradiated WT C57B1/6 animals after 8 weeks for BM reconstitution, GPR120 was >90% reduced in circulating monocytes. Animals were then kept on either chow or switched to 60% HFD for weeks (±supplemention with ω-3 FAs for 5 weeks). (A) BMT GPR120 KO animals on chow are insulin resistant compared to WT controls. This effect is mediated by decreased GIR and a greater suppression of HGP in WT animals compared to KOs (n=5 for WT and n=6 per KO group). (B) BMT GPR120 KO animals on HFD supplemented with […] FAs (+ω3) are insulin resistant compared to WT controls. This effect is shown by decreased GIR, decreased IS-GDR, and a greater suppression of HGP in WT animals compared to KOs. (C) GPR120 expression levels in various tissues. RPS3 was the internal control for normalization. GPR120 is not expressed in soleus, or EDL muscle. […] Data are expressed as mean±SEM. *, p<0.05 compared to WT in (A) and (B).
HA-GLUT4-eGFP expression vector were electroporated into day 8 post differentiated 3T3-L1 adipocytes for monitoring of GLUT4 translocation as previously described (Yoshizaki et al., 2007). […] Glucose uptake was measured as previously described (Imamura et al., 1999).

RAW 264.7 cells [5] = test: ERK1/2 phosphorylation in RAW 264.7 cells; format: cell-based, mouse; settings: 100 μM, 5 min
Method: FIG. 9, related to FIGS. 2 and 3. DHA-stimulated GPR120 inhibits TNF-α, TLR2 and TLR3-induced inflammation via a β-arrestin2 dependent mechanism. (A) ERK1/2 phosphorylation stimulated by GPR120 activation in RAW 264.7 cells transfected with scrambled or GPR120 siRNA. Cells were treated with 100 μM of DHA, α-linolenic acid or palmitic acid for 5 min. […] Data are expressed as the mean±SEM of three independent experiments. *, p<0.05 versus scrambled siRNA transfected cells. (B) Differentiated 3T3-L1 adipocytes were transfected with scrambled or GPR120 siRNA (GPR120 KD) and then 48 hr after siRNA transfection, cells were treated with 100 μM of DHA or GW9508 for 1 hr prior to TNF-α (10 ng/ml) treatment for 7 min prior to harvesting and then subjected to western blotting with the indicated antibodies. (C) RAW 264.7 cells, transfected with scrambled or GPR120 siRNA (GPR120 KD), were treated with 100 μM of DHA for 1 hr prior to 10 min TLR2 ligand, Pam3CSK4 (50 ng/ml), or TLR3 ligand, poly(I:C) (1 μg/ml), treatment and then subjected to western blotting. (D) To characterize the interaction site between β-arrestin2 and GPR120 or TAB1, HA-tagged GPR120 and FLAG-tagged serial C-terminal deletion mutants of β-arrestin2 (full, 1-300, 1-253, 1-176, and 1-163) or an N-terminal deletion mutant (80-410) were cotransfected in 293 cells. For immunoprecipitation of FLAG-βarr2 and HA-GPR120, cells were treated with DHA for 30 min, while DHA was used for 1 hr to detect endogenous TAB1 and FLAG-βarr2 interactions.
as §3

[6] = 100 μM 1 hr prior to LPS 100 ng/ml 10 min

CC/C=C\C/C=C\C/C=C\C/C=C\C/C=C\C/C=C\CCC(=O)O [DHA]
LPS-induced TAK1 and MKK4 phosphorylation (RAW 264.7 cells [1]; RAW 264.7 cells): abrogated
LPS-induced phosphorylation of JNK and IKKβ, IκB degradation, cytokine secretion and inflammatory gene expression level (RAW 264.7 cells [1]; RAW 264.7 cells): strongly inhibited
GLUT4 translocation to the cell surface (3T3-L1 adipocytes [2]; 100 μM, 30 min): increased
effect on glucose uptake relative to the effect of insulin (3T3-L1 adipocytes [2]; 3T3-L1 adipocytes): 30-50%
glucose transport (3T3-L1 adipocytes [2]): increase
whole body glucose homeostasis after acute treatment (WT mice on 60% HFD): no effect
effect on chemotactic capacity [3]: no significant effect
inhibition of chemotactic capacity (IPMacs from WT mice): 80%
IRS-1 phosphorylation (3T3-L1 adipocytes [4]): did not stimulate
phosphorylation of Akt (3T3-L1 adipocytes [4]; 100 μM): modest effect
glucose uptake (L6 myocytes): not altered
ERK phosphorylation (RAW 264.7 cells [5]): activated

O=C(O)CCc1ccc(NCc2cccc(Oc3ccccc3)c2)cc1 [GW9508]
IκB degradation (RAW 264.7 cells [1]; [6]): prevented
LPS stimulated phosphorylation of IKKβ and JNK (RAW 264.7 cells [1]; [6]): inhibited
TNF-α and IL-6 secretion (RAW 264.7 cells [1]; 100 μM 1 hr prior to LPS 100 ng/ml 6 hr, ELISA): inhibited
LPS-induced phosphorylation of JNK and IKKβ, IκB degradation, cytokine secretion and inflammatory gene expression level (RAW 264.7 cells [1]; RAW 264.7 cells): strongly inhibited
glucose transport (3T3-L1 adipocytes [2]): stimulatory effect

CCCCCCCCCCCCCCCC(=O)O [palmitic acid]
ERK phosphorylation (RAW 264.7 cells [5]): activated

CC/C=C\C/C=C\C/C=C\CCCCCCCC(=O)O [α-linolenic acid]
ERK phosphorylation (RAW 264.7 cells [5]): activated
